Laboratory results published in patent US20170305857A1, “N-ACYLPIPERIDINE ETHER TROPOMYOSIN-RELATED KINASE INHIBITORS” (Pfizer Limited, priority 2014, published 2017).

Molecular target: T1, recombinant His-tagged cytoplasmic domains of TRKA receptor (NTRK1, PV3144, aa 441-796) (Homo sapiens, UniProt P04629)
T1 construct: aa 441-796; His; purchased Invitrogen PV3144
Assay: Isolated TRK enzyme assay (HTRF KinEASE-TK, PV3144 TrkA enzyme assay)
Format: biochemical
Conditions: 4 nM enzyme, 40 uM ATP, 35 min, arithmetic mean where more than one reading
Procedure, shortened: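 Enzyme and ATP were preincubated with compound for 20 min at room temperature in buffer with 10 mM MgCl and 2 mM DTT. TK-substrate-Biotin was then added (1 uM final) and the reaction run for an enzyme-specific optimized time. Phosphorylation was read by HTRF, and IC50 values came from sigmoid fits of percent inhibition normalized to plate controls, averaged over replicate readings.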

T1 sequence (P04629 441-796): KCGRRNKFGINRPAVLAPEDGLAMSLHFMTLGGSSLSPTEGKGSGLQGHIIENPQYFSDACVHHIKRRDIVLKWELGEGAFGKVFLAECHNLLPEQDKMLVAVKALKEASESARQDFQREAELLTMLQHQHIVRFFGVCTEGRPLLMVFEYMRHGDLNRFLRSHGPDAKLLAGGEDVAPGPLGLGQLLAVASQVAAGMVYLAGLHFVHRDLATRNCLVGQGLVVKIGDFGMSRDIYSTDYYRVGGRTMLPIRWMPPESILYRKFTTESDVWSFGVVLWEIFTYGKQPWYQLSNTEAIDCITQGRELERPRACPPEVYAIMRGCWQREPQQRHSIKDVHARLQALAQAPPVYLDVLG

Row | SMILES | IC50 [nM]
1 | C[C@@H](CO)n1cc(-c2ccc(OC3CCN(C(=O)Cc4ccc(OC(F)(F)F)cc4)CC3)c(C(N)=O)c2)cn1 [Example 131, 5-{1-[(2S)-1-hydroxypropan-2-yl]-1H-pyrazol-4-yl}-2-[(1-{[4-(trifluoromethoxy)phenyl]acetyl}piperidin-4-yl)oxy]benzamide] | 4.4
2 | C[C@@H](O)Cn1cc(-c2ccc(OC3CCN(C(=O)Cc4ccc(OC(F)(F)F)cc4)CC3)c(C(N)=O)c2)cn1 [Example 133] | 2.6
3 | C[C@H](O)Cn1cc(-c2ccc(OC3CCN(C(=O)Cc4ccc(OC(F)(F)F)cc4)CC3)c(C(N)=O)c2)cn1 [Example 134] | 2.5
4 | NCCn1cc(-c2ccc(OC3CCN(C(=O)Cc4ccc(OC(F)(F)F)cc4)CC3)c(C(N)=O)c2)cn1 [Example 138, 5-[1-(2-aminoethyl)-1H-pyrazol-4-yl]-2-[(1-{[4-(trifluoromethoxy)phenyl]acetyl}piperidin-4-yl)oxy]benzamide] | 7
5 | Cc1nc(-c2cnc(OC3CCN(C(=O)Cc4ccc(OC(F)(F)F)cc4)CC3)c(C(N)=O)c2)c[nH]1 [Example 139, 5-(2-methyl-1H-imidazol-4-yl)-2-[(1-{[4-(trifluoromethoxy)phenyl]acetyl}piperidin-4-yl)oxy]pyridine-3-carboxamide] | 10.7
6 | NC(=O)c1cc(-c2c[nH]cn2)cnc1O[C@H]1CCN(C(=O)Cc2ccc(OC(F)(F)F)cc2)C[C@H]1F [Example 141, 2-{[(3R,4S)-3-fluoro-1-{[4-(trifluoromethoxy)phenyl]acetyl}piperidin-4-yl]oxy}-5-(1H-imidazol-4-yl)pyridine-3-carboxamide] | 1.4
7 | Cc1nc(C)c(-c2ccc(OC3CCN(C(=O)Cc4ccc(OC(F)(F)F)cc4)CC3)c(C(N)=O)c2)s1 [Example 143, 5-(2,4-dimethyl-1,3-thiazol-5-yl)-2-[(1-{[4-(trifluoromethoxy)phenyl]acetyl}piperidin-4-yl)oxy]benzamide] | 16.5
8 | N#Cc1cc(-c2ccc(OC3CCN(C(=O)Cc4ccc(OC(F)(F)F)cc4)CC3)c(C(N)=O)c2)cs1 [Example 144, 5-(5-cyanothiophen-3-yl)-2-[(1-{[4-(trifluoromethoxy)phenyl]acetyl}piperidin-4-yl)oxy]benzamide] | 16.7
9 | Cc1nc(-c2ccc(OC3CCN(C(=O)Cc4ccc(OC(F)(F)F)cc4)CC3)c(C(N)=O)c2)c[nH]1 [Example 146, 5-(2-methyl-1H-imidazol-4-yl)-2-[(1-{[4-(trifluoromethoxy)phenyl]acetyl}piperidin-4-yl)oxy]benzamide] | 11.6
10 | Cc1nnc(-c2ccc(OC3CCN(C(=O)Cc4ccc(OC(F)(F)F)cc4)CC3)c(C(N)=O)c2)s1 [Example 147, 5-(5-methyl-1,3,4-thiadiazol-2-yl)-2-[(1-{[4-(trifluoromethoxy)phenyl]acetyl}piperidin-4-yl)oxy]benzamide] | 12.6
11 | Cn1ccc(-c2ccc(OC3CCN(C(=O)Cc4ccc(OC(F)(F)F)cc4)CC3)c(C(N)=O)c2)n1 [Example 148, 5-(1-methyl-1H-pyrazol-3-yl)-2-[(1-{[4-(trifluoromethoxy)phenyl]acetyl}piperidin-4-yl)oxy]benzamide] | 12.6
12 | Cn1cc(-c2ccc(OC3CCN(C(=O)Cc4ccc(OC(F)(F)F)cc4)CC3)c(C(N)=O)c2)c(C#N)n1 [Example 149, 5-(3-cyano-1-methyl-1H-pyrazol-4-yl)-2-[(1-{[4-(trifluoromethoxy)phenyl]acetyl}piperidin-4-yl)oxy]benzamide] | 13.7
13 | NC(=O)c1cc(-c2cccnc2)ccc1OC1CCN(C(=O)Cc2ccc(OC(F)(F)F)cc2)CC1 [Example 150, 5-(pyridin-3-yl)-2-[(1-{[4-(trifluoromethoxy)phenyl]acetyl}piperidin-4-yl)oxy]benzamide] | 11
14 | C[C@H](O)c1ccc(-c2cnc(OC3CCN(C(=O)Cc4ccc(OC(F)(F)F)cc4)CC3)c(C(N)=O)c2)cc1 [Example 152, 5-{4-[(1S)-1-hydroxyethyl]phenyl}-2-[(1-{[4-(trifluoromethoxy)phenyl]acetyl}piperidin-4-yl)oxy]pyridine-3-carboxamide] | 12.7
15 | CCc1ccc(CC(=O)N2CCC(Oc3ccc(-c4cnn(C)c4)cc3C(N)=O)CC2)cc1 [Example 153, 2-({1-[(4-ethylphenyl)acetyl]piperidin-4-yl}oxy)-5-(1-methyl-1H-pyrazol-4-yl)benzamide] | 19.3
16 | Cn1cnc(-c2ccc(OC3CCN(C(=O)Cc4ccc(OC(F)(F)F)cc4)C4CC34)c(C(N)=O)c2)c1 (centres unmarked) [Example 159, 5-(1-methyl-1H-imidazol-4-yl)-2-[(2-{[4-(trifluoromethoxy)phenyl]acetyl}-2-azabicyclo[4.1.0]hept-5-yl)oxy]benzamide] | 17.8
17 | Cc1cn(-c2cnc(O[C@@H]3CCN(C(=O)Cc4ccc(OC(F)(F)F)cc4)C[C@@H]3F)c(C(N)=O)c2)cn1 [Example 162, 2-(((3S,4R)-3-fluoro-1-(2-(4-(trifluoromethoxy)phenyl)acetyl)piperidin-4-yl)oxy)-5-(4-methyl-1H-imidazol-1-yl)nicotinamide] | 12.3
18 | CC(C)(O)Cn1cc(-c2cnc(O[C@H]3CCN(C(=O)Cc4ccc(OC5CC5)cn4)C[C@@H]3F)c(C(N)=O)c2)cn1 [Example 163, 2-{[(3S,4S)-1-{[5-(cyclopropyloxy)pyridin-2-yl]acetyl}-3-fluoropiperidin-4-yl]oxy}-5-[1-(2-hydroxy-2-methylpropyl)-1H-pyrazol-4-yl]pyridine-3-carboxamide] | 16.6

Results, then the compound that gave them:

Row | IC50 [nM] | SMILES
19 | 5.5 | NC(=O)c1cc(-c2cnn(CCO)c2)ccc1OC1CCN(C(=O)Cc2ccc(OC3CC3)cc2)CC1 [Example 130, 2-[(1-{[4-(cyclopropyloxy)phenyl]acetyl}piperidin-4-yl)oxy]-5-[1-(2-hydroxyethyl)-1H-pyrazol-4-yl]benzamide]
20 | 5.1 | C[C@H](CO)n1cc(-c2ccc(OC3CCN(C(=O)Cc4ccc(OC(F)(F)F)cc4)CC3)c(C(N)=O)c2)cn1 [Example 132]
21 | 3.9 | CC(C)(O)Cn1cc(-c2ccc(OC3CCN(C(=O)Cc4ccc(OC(F)(F)F)cc4)CC3)c(C(N)=O)c2)cn1 [Example 135]
22 | 5.3 | NC(=O)c1cc(-c2c[nH]nn2)ccc1OC1CCN(C(=O)Cc2ccc(OC(F)(F)F)cc2)CC1 [Example 136, 5-(1H-1,2,3-triazol-4-yl)-2-((1-(2-(4-(trifluoromethoxy)phenyl)acetyl)piperidin-4-yl)oxy)benzamide]
23 | 10.3 | Cn1cc(-c2ccc(OC3CCN(C(=O)Nc4ccc(OC(F)(F)F)cc4F)CC3)c(C(N)=O)c2)cn1 [Example 140, 4-(2-carbamoyl-4-(1-methyl-1H-pyrazol-4-yl)phenoxy)-N-(2-fluoro-4-(trifluoromethoxy)phenyl)piperidine-1-carboxamide]
24 | 17.1 | Cn1cncc1-c1ccc(OC2CCN(C(=O)Cc3ccc(OC(F)(F)F)cc3)CC2)c(C(N)=O)c1 [Example 145, 5-(1-methyl-1H-imidazol-5-yl)-2-[(1-{[4-(trifluoromethoxy)phenyl]acetyl}piperidin-4-yl)oxy]benzamide]
25 | 12 | NC(=O)c1cc(-c2ccc(CO)cc2)cnc1OC1CCN(C(=O)Cc2ccc(OC(F)(F)F)cc2)CC1 [Example 151, 5-[4-(hydroxymethyl)phenyl]-2-[(1-{[4-(trifluoromethoxy)phenyl]acetyl}piperidin-4-yl)oxy]pyridine-3-carboxamide]
26 | 2.93 | Cn1ncc(-c2cnc(O[C@@H]3CCN(C(=O)Cc4ccc(OC(F)(F)F)cc4)C[C@@H]3F)c(C(N)=O)c2)n1 [Example 154, 2-{[(3S,4R)-3-fluoro-1-{[4-(trifluoromethoxy)phenyl]acetyl}piperidin-4-yl]oxy}-5-(2-methyl-2H-1,2,3-triazol-4-yl)pyridine-3-carboxamide]
27 | 2.45 | Cn1cc(-c2cnc(O[C@@H]3CCN(C(=O)Cc4ccc(OC(F)(F)F)cc4)C[C@@H]3F)c(C(N)=O)c2)nn1 [Example 155, 2-[((3S,4R)-3-fluoro-1-{[4-(trifluoromethoxy)phenyl]acetyl}piperidin-4-yl)oxy]-5-(1-methyl-1H-1,2,3-triazol-4-yl)pyridine-3-carboxamide]
28 | 4.16 | Cn1cc(-c2cc(C(N)=O)c(O[C@H]3CCN(C(=O)Cc4ccc(OC(F)(F)F)cc4)C[C@H]3F)nn2)cn1 [Example 156, 3-{[(3R,4S)-3-fluoro-1-{[4-(trifluoromethoxy)phenyl]acetyl}piperidin-4-yl]oxy}-6-(1-methyl-1H-pyrazol-4-yl)pyridazine-4-carboxamide]
29 | 7.24 | Cn1cc(-c2cc(C(N)=O)c(O[C@@H]3CCN(C(=O)Cc4ccc(OC(F)(F)F)cc4)C[C@@H]3F)nn2)cn1 [Example 157, 3-{[(3S,4R)-3-fluoro-1-{[4-(trifluoromethoxy)phenyl]acetyl}piperidin-4-yl]oxy}-6-(1-methyl-1H-pyrazol-4-yl)pyridazine-4-carboxamide]
30 | 18.4 | Cn1cnc(-c2ccc(O[C@H]3[C@@H]4CO[C@H]3CN(C(=O)Cc3ccc(OC(F)(F)F)cc3)C4)c(C(N)=O)c2)c1 [Example 158, 5-(1-methyl-1H-imidazol-4-yl)-2-{[(1S,5S,8S)-3-{[4-(trifluoromethoxy)phenyl]acetyl}-6-oxa-3-azabicyclo[3.2.1]oct-8-yl]oxy}benzamide]
31 | 8.46 | NC(=O)c1cc(-n2cc(CO)cn2)cnc1O[C@@H]1CCN(C(=O)Cc2ccc(OC(F)(F)F)cc2)C[C@@H]1F [Example 160, 2-{[(3S,4R)-3-fluoro-1-{[4-(trifluoromethoxy)phenyl]acetyl}piperidin-4-yl]oxy}-5-[4-(hydroxymethyl)-1H-pyrazol-1-yl]pyridine-3-carboxamide]
32 | 15.9 | CS(=O)(=O)Cn1cc(-c2cc(C(N)=O)c(O[C@H]3CCN(C(=O)Cc4ccc(OC5CC5)cc4)C[C@@H]3F)cn2)cn1 [Example 165, 5-{[(3S,4S)-1-{[4-(cyclopropyloxy)phenyl]acetyl}-3-fluoropiperidin-4-yl]oxy}-2-{1-[(methylsulfonyl)methyl]-1H-pyrazol-4-yl}pyridine-4-carboxamide]
